In US8445510B2, “Fused bicyclic kinase inhibitors” (OSI Pharmaceuticals, LLC, priority 2011, dated 2013):

What was measured:
[1] = test system: MKN45 cells; experiment: MKN45 cell proliferation assay (CellTiter-Glo); format: cell-based; settings: Homo sapiens, MKN-45, 72 h; MKN45 cell line; 3 days incubation; at least duplicate experiments; read-out: Prolif. IC50
[2] = biological target: T1, RON (Homo sapiens, UniProt Q04912); experiment: sfRON cell mechanistic assay (HeLa), phosphorylated RON ELISA; format: cell-based; settings: HeLa cells transfected with sfRON; inhibition of phosphorylated RON; four hours incubation; at least duplicate experiments; read-out: sfRON mech IC50
T1 sequence (Q04912 913-1400): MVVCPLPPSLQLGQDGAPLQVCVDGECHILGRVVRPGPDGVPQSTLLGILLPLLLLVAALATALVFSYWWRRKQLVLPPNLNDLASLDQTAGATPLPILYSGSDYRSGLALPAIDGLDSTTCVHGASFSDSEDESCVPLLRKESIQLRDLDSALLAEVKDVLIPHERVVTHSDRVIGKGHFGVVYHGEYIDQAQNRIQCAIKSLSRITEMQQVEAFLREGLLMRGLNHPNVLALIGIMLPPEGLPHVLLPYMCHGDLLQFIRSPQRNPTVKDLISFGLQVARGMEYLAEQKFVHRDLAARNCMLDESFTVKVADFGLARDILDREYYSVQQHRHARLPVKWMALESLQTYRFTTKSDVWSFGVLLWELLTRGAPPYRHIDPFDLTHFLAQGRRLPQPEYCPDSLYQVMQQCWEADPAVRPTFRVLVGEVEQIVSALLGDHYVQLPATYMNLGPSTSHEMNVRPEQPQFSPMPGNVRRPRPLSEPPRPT
How it was run: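 HeLa cells transiently transfected with sfRON plasmid, then exposed 4 h at 37 °C to a 6-point compound series (typically 10 μM to 3 nM, 0.5% DMSO). Phospho-RON (pY1238/1239) in lysates measured by sandwich ELISA with luminescence. IC50 from 4-parameter fit of percent-of-DMSO-control data, at least duplicate runs.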

Compound	IC50 [1] [nM]	IC50 [2] [nM]
COc1ccc(F)c(Cl)c1[C@@H](C)c1c[nH]c2ncc(-c3c[nH]nc3C)cc12 [Example 1, 3-[(1S)-1-(2-Chloro-3-fluoro-6-methoxyphenyl)ethyl]-5-(3-methyl-1H-pyrazol-4-yl)-1H-pyrrolo[2,3-b]pyridine]	≤ 50	200 to 1000
COc1ccc(F)c(Cl)c1[C@@H](C)c1c[nH]c2ncc(-c3cnn(C)c3C)cc12 [Example 3, 3-[(1S)-1-(2-Chloro-3-fluoro-6-methoxyphenyl)ethyl]-5-(1,5-dimethyl-1H-pyrazol-4-yl)-1H-pyrrolo[2,3-b]pyridine]	≤ 50	200 to 1000
COc1ccc(F)c(Cl)c1[C@@H](C)c1c[nH]c2ncc(-c3c(C)nn(C)c3C)cc12 [Example 4, 3-[(1S)-1-(2-Chloro-3-fluoro-6-methoxyphenyl)ethyl]-5-(1,3,5-trimethyl-1H-pyrazol-4-yl)-1H-pyrrolo[2,3-b]pyridine]	200 to 1000	> 1000
COc1ccc(F)c(Cl)c1[C@@H](C)c1c[nH]c2ncc(-c3c(C)nn(CC(C)(C)O)c3C)cc12 [Example 5, 1-(4-{3-[(1S)-1-(2-Chloro-3-fluoro-6-methoxyphenyl)ethyl]-1H-pyrrolo[2,3-b]pyridin-5-yl}-3,5-dimethyl-1H-pyrazol-1-yl)-2-methylpropan-2-ol]	50 to 200	> 1000
COc1ccc(F)c(Cl)c1[C@@H](C)c1c[nH]c2ncc(-c3c(C)nn([C@H]4CC[C@H](O)CC4)c3C)cc12 [Example 6, trans-4-(4-{3-[(1S)-1-(2-Chloro-3-fluoro-6-methoxyphenyl)ethyl]-1H-pyrrolo[2,3-b]pyridin-5-yl}-3,5-dimethyl-1H-pyrazol-1-yl)cyclohexanol]	≤ 50	200 to 1000
COc1ccc(F)c(Cl)c1[C@@H](C)c1c[nH]c2ncc(-c3cnn(C[C@H](O)CO)c3C)cc12 [Example 10, (2S)-3-(4-{3-[(1S)-1-(2-Chloro-3-fluoro-6-methoxyphenyl)ethyl]-1H-pyrrolo[2,3-b]pyridin-5-yl}-5-methyl-1H-pyrazol-1-yl)propane-1,2-diol]	≤ 50	≤ 200

The next lines start with the values.

IC50 [1] [nM]	IC50 [2] [nM]	Compound
50 to 200	200 to 1000	COc1ccc(F)c(Cl)c1[C@@H](C)c1c[nH]c2ncc(-c3cn(C)nc3C)cc12 [Example 2, 3-[(1S)-1-(2-Chloro-3-fluoro-6-methoxyphenyl)ethyl]-5-(1,3-dimethyl-1H-pyrazol-4-yl)-1H-pyrrolo[2,3-b]pyridine]
≤ 50	200 to 1000	COc1ccc(F)c(Cl)c1[C@@H](C)c1c[nH]c2ncc(-c3cn(CC(C)(C)O)nc3C)cc12 [Example 7, 1-(4-{3-[(1S)-1-(2-Chloro-3-fluoro-6-methoxyphenyl)ethyl]-1H-pyrrolo[2,3-b]pyridin-5-yl}-3-methyl-1H-pyrazol-1-yl)-2-methylpropan-2-ol]
≤ 50	200 to 1000	COc1ccc(F)c(Cl)c1[C@@H](C)c1c[nH]c2ncc(-c3cnn(CC(C)(C)O)c3C)cc12 [Example 8, 1-(4-{3-[(1S)-1-(2-Chloro-3-fluoro-6-methoxyphenyl)ethyl]-1H-pyrrolo[2,3-b]pyridin-5-yl}-5-methyl-1H-pyrazol-1-yl)-2-methylpropan-2-ol]
50 to 200	200 to 1000	CCc1c(-c2cnc3[nH]cc([C@H](C)c4c(OC)ccc(F)c4Cl)c3c2)cnn1CC(C)(C)O [Example 11, 1-(4-{3-[(1S)-1-(2-Chloro-3-fluoro-6-methoxyphenyl)ethyl]-1H-pyrrolo[2,3-b]pyridin-5-yl}-5-ethyl-1H-pyrazol-1-yl)-2-methylpropan-2-ol]
50 to 200	200 to 1000	CCc1nn(CC(C)(C)O)cc1-c1cnc2[nH]cc([C@H](C)c3c(OC)ccc(F)c3Cl)c2c1 [Example 12, 1-(4-{3-[(1S)-1-(2-Chloro-3-fluoro-6-methoxyphenyl)ethyl]-1H-pyrrolo[2,3-b]pyridin-5-yl}-3-ethyl-1H-pyrazol-1-yl)-2-methylpropan-2-ol]
